According to patent US20150196612A1, “Anti-enterovirus 71 steroidal saponins and their preparation” (Shanghai University of Traditional Chinese Medicine, priority 2014, published 2015):

Key:
[1] = test system: respiratory syncytial virus (RSV); conditions: read-out: IC50, inhibitory effects on RSV; cited from earlier work
enterovirus 71 (EV71) = assay: anti-EV71 activity (antiviral bioassay); format: cell-based
[2] = cytotoxicity (CC50) of steroidal saponins

## C[C@H]1CC[C@@]2(OC1)O[C@H]1C[C@H]3[C@@H]4CC[C@@H]5C[C@@H](O[C@@H]6O[C@H](CO)[C@H](O)[C@H](O)[C@H]6O[C@@H]6O[C@H](CO)[C@@H](O)[C@H](O)[C@H]6O)CC[C@]5(C)[C@H]4CC[C@]3(C)[C@H]1[C@@H]2C [compound 7, timosaponin A-III]
[1]
  IC50: 1 µM
Enterovirus 71 (EV71); FIG. 6, read-out: IC50 (50% inhibitory concentration), anti-EV71
  IC50: 1.06 µM

## C[C@H]1CC[C@@]2(OC1)O[C@H]1C[C@H]3[C@@H]4CC[C@@H]5C[C@@H](O)CC[C@]5(C)[C@H]4CC[C@]3(C)[C@H]1[C@@H]2C [compound 8, Sarsasapogenin, reference compound]
Enterovirus 71 (EV71); FIG. 6
  anti-EV71 activity of compounds (in words): completely inactive

## NC(=O)c1ncn([C@@H]2O[C@H](CO)[C@@H](O)[C@H]2O)n1 [Ribavirin, ribavirin, reference compound]
Enterovirus 71 (EV71); FIG. 6
  Selective Index (SI): 2.365

## C[C@@H](CC[C@@]1(O)O[C@H]2C[C@H]3[C@@H]4CC[C@@H]5C[C@@H](O[C@@H]6O[C@H](CO)[C@H](O)[C@H](O)[C@H]6O[C@@H]6O[C@H](CO)[C@@H](O)[C@H](O)[C@H]6O)CC[C@]5(C)[C@H]4CC[C@]3(C)[C@H]2[C@@H]1C)CO[C@@H]1O[C@H](CO)[C@@H](O)[C@H](O)[C@H]1O [compound 2, timosaponin B-II]
[2]
  CC50: 401 µM
Enterovirus 71 (EV71); FIG. 6
  Selective Index (SI): 92.876
Enterovirus 71 (EV71); relative to ribavirin
  IC50 as percentage of that of positive control ribavirin: 1%
  selectivity index relative to ribavirin's: more than 40 times

## CC1=C(CCC(C)CO[C@@H]2O[C@H](CO)[C@@H](O)[C@H](O)[C@H]2O)O[C@H]2CC3C4CCC5CC(O[C@@H]6O[C@H](CO)[C@H](O)[C@H](O)[C@H]6O[C@@H]6O[C@H](CO)[C@@H](O)[C@H](O)[C@H]6O)CC[C@]5(C)C4CC[C@]3(C)[C@@H]12 (stereo partly drawn) [compound 3, anemarsaponin B]
Enterovirus 71 (EV71); FIG. 6
  anti-EV71 activity of compounds (in words): completely inactive
